The values that follow come from US4895842A, “Phenylalanine derivative and proteinase inhibitor” (Shosuke Okamoto, priority 1985, dated 1990).

Experiment [1] has as its target T1, bovine thrombin (Bos taurus, UniProt P00735). Put plainly: Antithrombin activity: inhibition of S-2238 decomposition. The experiment is classed as biochemical. The gist of the method: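 Inhibitor in 0.05 M Tris-HCl, pH 8.3, preincubated with S-2238 (0.2 mM stock) for 5 min at 37 °C. Bovine thrombin (0.2 unit/ml stock) then added, and p-nitroaniline release followed at 405 nm by initial velocity at 37 °C. I50 is the concentration halving the rate.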

Experiment [2] addresses T2, human plasmin (Homo sapiens, UniProt P00747). Put plainly: biochemical. The following applies: read-out: Plasmin S-2251 (I50). In outline: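 Inhibitor in 0.05M Tris-HCl buffer, pH 7.4, was incubated with human plasmin added at 0.2 casein unit/ml (stock) at 37° C for 4 minutes, then stopped with 50% acetic acid. I50 (μmol) is the inhibitor concentration giving half the absorbance obtained without inhibitor.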

Another experiment concerns the target human urokinase (Homo sapiens, UniProt P00749). Briefly: biochemical. To be noted: Table 2; S-2444 substrate, pH 8.8, 37° C.; read-out: Urokinase S-2444 (I50). In outline:
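Inhibitor in 0.05M Tris-HCl pH 8.8 preincubated 5 min at 37° C with S-2444 (1 mM solution added), then human urokinase (500 unit/ml solution) added for 5 min at 37° C; stopped with 50% acetic acid. p-Nitroaniline read at 405 nm; I50 is concentration halving absorbance versus no inhibitor.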

A further experiment concerns the target T3, bovine trypsin (Bos taurus, UniProt P00760).
T3 sequence (P00760 24-246): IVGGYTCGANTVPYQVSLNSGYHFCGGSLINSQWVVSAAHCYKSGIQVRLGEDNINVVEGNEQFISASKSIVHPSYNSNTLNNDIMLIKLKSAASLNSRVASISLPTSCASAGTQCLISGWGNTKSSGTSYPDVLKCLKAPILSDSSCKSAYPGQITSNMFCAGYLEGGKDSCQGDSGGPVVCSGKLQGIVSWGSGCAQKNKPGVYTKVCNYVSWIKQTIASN
Briefly: Antitrypsin activity: inhibition of S-2238 decomposition. The following applies: Table 2; S-2238 substrate, pH 8.1, 37° C.; read-out: Trypsin S-2238 (I50). It is filed as biochemical.

Experiment [3] deals with T2, human plasmin. Put plainly: Antiplasmin activity: inhibition of fibrin decomposition. It is filed as biochemical. To be noted: Table 2; concentration at which fibrin dissolution time is extended twice, pH 7.4, 37° C.; read-out: Plasmin Fibrin (I50). In outline:
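Inhibitor in 0.18 M borate–physiological saline buffer, pH 7.4, received bovine fibrinogen (0.2% solution), human plasmin (0.3 casein unit/ml solution) and bovine thrombin (50 unit/ml solution) at 37 °C. Time for the resulting fibrin clot to dissolve was recorded.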

Another experiment addresses human plasma kallikrein (Homo sapiens, UniProt P03952). Briefly: Anti-plasma kallikrein activity: inhibition of S-2302 decomposition. The experiment is classed as biochemical. To be noted: Table 2; S-2302 substrate, pH 7.8, 37° C.; read-out: Plasma Kallikrein S-2302 (I50).
In experiment [4] the target is T1, bovine thrombin. Briefly: Antithrombin activity: inhibition of fibrin formation from fibrinogen. The experiment is classed as biochemical. The gist of the method:
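Inhibitor in 0.18M borate-saline buffer pH 7.4 mixed with 0.2% bovine fibrinogen and 4 unit/ml bovine thrombin (stock levels) at 37° C; clotting time measured. I50 is the inhibitor concentration doubling coagulation time versus uninhibited control.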

[5] abbreviates: Table 2, S-2238 substrate, pH 8.3, 37° C., read-out: Thrombin S-2238 (I50).
Setting [6] is: Table 2, 50% inhibition concentration, S-2251 substrate, pH 7.4, 37° C.
Setting [7] is: read-out: Thrombin Fibrinogen (I50), Table 2, concentration at which coagulation time of bovine fibrinogen is extended twice, pH 7.4, 37° C.

Where a name gives a salt, the structure may show the parent alone. A value given as a limit tells only on which side of the number the result lay.

T2 sequence (P00747 581-810 limits assumed): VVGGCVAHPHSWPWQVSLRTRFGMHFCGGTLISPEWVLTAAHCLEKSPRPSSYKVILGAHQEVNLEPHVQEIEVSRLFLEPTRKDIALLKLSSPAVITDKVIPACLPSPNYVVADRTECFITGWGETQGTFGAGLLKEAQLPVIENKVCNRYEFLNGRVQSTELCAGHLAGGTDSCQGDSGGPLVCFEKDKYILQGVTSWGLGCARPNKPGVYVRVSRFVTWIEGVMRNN
T2 sequence (P00747 97-580 partner limits assumed): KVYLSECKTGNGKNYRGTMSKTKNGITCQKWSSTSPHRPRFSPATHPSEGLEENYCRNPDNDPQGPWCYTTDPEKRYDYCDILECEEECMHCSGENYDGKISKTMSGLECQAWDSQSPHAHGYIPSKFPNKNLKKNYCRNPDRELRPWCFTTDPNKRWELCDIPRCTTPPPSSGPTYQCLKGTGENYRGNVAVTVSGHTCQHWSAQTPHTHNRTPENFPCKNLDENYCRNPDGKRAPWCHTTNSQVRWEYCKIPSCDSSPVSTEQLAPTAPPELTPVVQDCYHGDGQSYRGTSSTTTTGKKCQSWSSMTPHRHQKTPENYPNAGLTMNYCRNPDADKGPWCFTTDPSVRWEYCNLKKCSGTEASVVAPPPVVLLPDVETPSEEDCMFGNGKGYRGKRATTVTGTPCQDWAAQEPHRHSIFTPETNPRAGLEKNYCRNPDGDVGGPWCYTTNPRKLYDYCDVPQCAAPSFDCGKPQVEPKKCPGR
human plasma kallikrein, sequence (P03952 391-638 limits assumed): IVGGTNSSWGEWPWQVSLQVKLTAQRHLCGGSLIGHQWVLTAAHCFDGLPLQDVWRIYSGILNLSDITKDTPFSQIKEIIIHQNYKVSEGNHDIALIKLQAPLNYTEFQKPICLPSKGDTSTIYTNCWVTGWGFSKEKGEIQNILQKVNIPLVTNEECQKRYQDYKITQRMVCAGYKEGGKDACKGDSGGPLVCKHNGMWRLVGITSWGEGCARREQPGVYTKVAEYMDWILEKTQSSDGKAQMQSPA
human plasma kallikrein, sequence (P03952 20-390 partner limits assumed): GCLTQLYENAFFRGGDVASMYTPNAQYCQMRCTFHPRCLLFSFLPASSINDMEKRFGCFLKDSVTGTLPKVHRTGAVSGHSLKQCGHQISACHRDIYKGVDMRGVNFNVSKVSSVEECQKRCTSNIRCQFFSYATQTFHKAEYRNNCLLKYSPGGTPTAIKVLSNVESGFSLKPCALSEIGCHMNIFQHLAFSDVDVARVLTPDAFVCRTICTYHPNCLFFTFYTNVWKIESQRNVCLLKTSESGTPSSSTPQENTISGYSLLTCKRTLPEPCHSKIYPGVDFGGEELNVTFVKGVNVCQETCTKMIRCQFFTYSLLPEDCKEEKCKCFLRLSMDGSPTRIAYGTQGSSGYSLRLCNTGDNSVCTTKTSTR
Procedure for bovine trypsin: Determination of inhibition activity against S-2238 decomposition
An inhibitor sample is dissolved in a 0.05M Tris-imidazole buffer solution (pH=8.1) and 125 μl of a 1 mM S-2238 solution is added to make the total volume to 1.20 ml. The mixture is incubated at a temperature of 37° C. for 5 minutes in a constant temperature bath. To this mixture, 0.05 ml of bovine trypsin is added and the absorbance, at 405 nm, of the p-nitroaniline formed per minute is determined at a temperature of 37° C. by using the so-called initial velocity method. Thus, the concentration I50 (μmol) of the inhibitor sample, at which the absorbance is one half (i.e., 1/2) of that obtained in the absence of the inhibitor sample, is determined.
Procedure for human plasma kallikrein: Determination of inhibition activity for S-2302 decomposition
An inhibitor sample is dissolved in a 0.05M Tris-hydrochloric acid buffer solution (pH=7.8) to make the total volume to 400 μl. To this solution, 50 μl of a 2 mM S-2302 solution is added and the mixture is incubated at a temperature of 37° C. for 5 minutes in a constant temperature bath. Then, 50 μl of a 0.12 unit/ml human plasma kallikrein is added and the mixture is incubated at a temperature of 37° C. for 5 minutes. Thereafter, 50 μl of 50% acetic acid is added to terminate the reaction. The absorbance of the p-nitroaniline formed in the reaction mixture is measured at 405 nm. Thus, the concentration I50 (μmol) of the inhibitor sample, at which the absorbance is one half (i.e., 1/2) of that obtained in the absence of the inhibitor sample, is determined.

As for `NCc1ccc(C(=O)N[C@@H](Cc2ccc(OCc3ccccc3)cc2)C(=O)N2CCC(C(=O)c3ccccc3)CC2)cc1` [compound 76], the IC50 on bovine thrombin [1] (setting [5]) was > 50 µM; at human plasmin [2], 5.8 µM; at human urokinase, > 250 µM; at bovine trypsin it was 38 µM; at human plasmin [3], 2.4 µM; on human plasma kallikrein, > 200 µM. Also, the IC50 against bovine thrombin [4] is > 25 µM.
With `NCc1ccc(C(=O)N[C@@H](Cc2ccc(OCc3ccccc3)cc2)C(=O)NCCc2ccccc2)cc1` [compound 78], the IC50 is > 50 µM against bovine thrombin [1]; 3.8 µM on human plasmin [2]; > 200 µM on human urokinase; 9.2 µM at bovine trypsin; 0.75 µM at human plasmin [3]; 100 µM on human plasma kallikrein. Also, the IC50 against bovine thrombin [4] is > 50 µM.
Turning to `CC1CCCC(NC(=O)[C@H](Cc2ccc(OCc3ccccc3)cc2)NC(=O)c2ccc(CN)cc2)C1C` (stereo partly shown) [compound 82], the IC50 was > 50 µM on bovine thrombin [1] (setting [5]); 8.5 µM on human plasmin [2] (setting [6]); > 400 µM at human urokinase; 7 µM on bovine trypsin; 2.9 µM at human plasmin [3]; 40 µM at human plasma kallikrein. Also, at bovine thrombin [4] (setting [7]), the IC50 was > 25 µM.
As for `CC(=O)c1ccc(NC(=O)[C@H](Cc2ccc(OCc3ccccc3Cl)cc2)NC(=O)[C@H]2CC[C@H](CN)CC2)cc1` [compound 83], the IC50 at bovine thrombin [1] (setting [5]) was > 200 µM; at human plasmin [2] it was 0.89 µM; at human urokinase, 58 µM; on bovine trypsin, 1.5 µM; at human plasmin [3], 0.21 µM; at human plasma kallikrein, 0.51 µM. The IC50 on bovine thrombin [4] is > 50 µM.
`CCOC(=O)c1ccc(COc2ccc(C[C@H](NC(=O)[C@H]3CC[C@H](CN)CC3)C(=O)Nc3ccc(C(C)=O)cc3)cc2)cc1` [compound 86]: the IC50 on bovine thrombin [1] (setting [5]) was > 100 µM; on human plasmin [2] it was 0.95 µM; on human urokinase, 23 µM; at bovine trypsin it was 0.97 µM; on human plasmin [3], 0.35 µM; at human plasma kallikrein, 0.42 µM. Also, on bovine thrombin [4], the IC50 is > 50 µM.
For the molecule `NCc1ccc(C(=O)N[C@@H](Cc2ccc(OCc3ccccc3)cc2)C(=O)NC2CCC(O)CC2)cc1` (stereo partly shown) [compound 88], the IC50 on bovine thrombin [1] (setting [5]) is > 200 µM; at human plasmin [2], 33 µM; on human urokinase, > 200 µM; at bovine trypsin, 52 µM; at human plasmin [3] it was > 20 µM; at human plasma kallikrein, 120 µM. Further, the IC50 against bovine thrombin [4] was > 20 µM.
Regarding `NCC1CCC(C(=O)NC(Cc2ccc(OCc3cccc(Cl)c3)cc2)C(=O)Nc2cccc(S(N)(=O)=O)c2)CC1` (stereo not shown) [compound 93], the IC50 on bovine thrombin [1] (setting [5]) is > 200 µM; at human plasmin [2], 1.6 µM; at human urokinase, 78 µM; on bovine trypsin, 2.5 µM; on human plasmin [3], 0.32 µM; at human plasma kallikrein, 1.2 µM. Moreover, the IC50 against bovine thrombin [4] was > 100 µM.
Consider `CC1CCC(NC(=O)C(Cc2ccc(OCc3cccc(Cl)c3)cc2)NC(=O)C2CCC(CN)CC2)CC1C` (stereo not shown) [compound 102], for which the IC50 at bovine thrombin [1] (setting [5]) was > 400 µM; at human plasmin [2], 0.69 µM; at human urokinase it was 320 µM; on bovine trypsin it was 1.3 µM; at human plasmin [3] it was 0.16 µM; on human plasma kallikrein, 3.5 µM. The IC50 against bovine thrombin [4] was > 50 µM.
In the case of `CCOC(=O)C1CCCC(NC(=O)[C@H](Cc2ccc(OCc3ccc(F)cc3)cc2)NC(=O)c2ccc(CN)cc2)C1` (stereo partly shown) [compound 105], the IC50 was > 50 µM at bovine thrombin [1] (setting [5]); 4.2 µM on human plasmin [2] (setting [6]); > 200 µM on human urokinase; 2.5 µM on bovine trypsin; 2.6 µM on human plasmin [3]; 40 µM on human plasma kallikrein. The IC50 at bovine thrombin [4] (setting [7]) is > 50 µM.
For `CC1CCC(NC(=O)C(Cc2ccc(Oc3ccc([N+](=O)[O-])cc3)cc2)NC(=O)c2ccc(CN)cc2)CC1C` (stereo not shown) [compound 109], the IC50 was > 50 µM on bovine thrombin [1] (setting [5]); 0.58 µM on human plasmin [2]; > 200 µM at human urokinase; 0.43 µM on bovine trypsin; 0.27 µM on human plasmin [3]; 20 µM on human plasma kallikrein. Moreover, the IC50 against bovine thrombin [4] is > 40 µM.
Regarding `CC(=O)c1ccc(NC(=O)C(Cc2ccc(OCc3ccccc3)cc2)NC(=O)c2ccc(CN)cc2)cc1` (stereo not shown) [compound 118], the IC50 on bovine thrombin [1] (setting [5]) is > 50 µM; on human plasmin [2], 3.4 µM; on human urokinase it was > 150 µM; on bovine trypsin, 3 µM; at human plasmin [3], 0.77 µM; on human plasma kallikrein it was 3.7 µM. At bovine thrombin [4], the IC50 is > 50 µM.
With `CC(=O)c1ccc(NC(=O)C(Cc2ccc(Oc3cc(Cl)ccc3[N+](=O)[O-])cc2)NC(=O)C2CCC(CN)CC2)cc1` (stereo not shown) [compound 123], the IC50 was 95 µM at bovine thrombin [1] (setting [5]); 0.39 µM at human plasmin [2]; 26 µM on human urokinase; 0.71 µM at bovine trypsin; 0.28 µM at human plasmin [3]; 0.078 µM at human plasma kallikrein. At bovine thrombin [4], the IC50 was > 50 µM.
Turning to `NC[C@H]1CC[C@H](C(=O)N[C@@H](Cc2ccc(OCc3ccc(Cl)c(Cl)c3)cc2)C(=O)Nc2ccncc2)CC1` [compound 127], the IC50 is > 200 µM on bovine thrombin [1] (setting [5]); 1.5 µM on human plasmin [2]; 20 µM at human urokinase; 1.8 µM at bovine trypsin; 0.29 µM at human plasmin [3]; 0.41 µM at human plasma kallikrein. Also, the IC50 at bovine thrombin [4] is > 50 µM.
For the molecule `NC[C@H]1CC[C@H](C(=O)N[C@@H](Cc2ccc(OCc3cccc(Cl)c3)cc2)C(=O)Nc2ccnc(Cl)c2)CC1` [compound 128], the IC50 was > 1000 µM at bovine thrombin [1] (setting [5]); 1.4 µM at human plasmin [2]; 82 µM on human urokinase; 1.3 µM at bovine trypsin; 0.3 µM at human plasmin [3]; 0.44 µM at human plasma kallikrein. In addition, at bovine thrombin [4], the IC50 was > 100 µM.
For the molecule `CC(=O)c1ccc(NC(=O)[C@H](Cc2ccc([N+](=O)[O-])cc2)NC(=O)[C@H]2CC[C@H](CN)CC2)cc1` [compound 130, N-(trans-4-aminomethylcyclohexylcarbonyl)-4-nitro-L-phenylalanine 4-acetylanilide hydrochloride], the IC50 at bovine thrombin [1] (setting [5]) is > 400 µM; at human plasmin [2], 15 µM; at human urokinase, 34 µM; at bovine trypsin it was 0.5 µM; on human plasmin [3] it was 7.1 µM; on human plasma kallikrein, 8.3 µM. In addition, the IC50 against bovine thrombin [4] was > 400 µM.
As for `NCc1ccc(C(=O)N[C@@H](Cc2ccccc2)C(=O)Nc2cccc(C(F)(F)F)c2)cc1` [compound 131], the IC50 is > 200 µM at bovine thrombin [1] (setting [5]); 170 µM at human plasmin [2]; > 250 µM at human urokinase; 4.4 µM at bovine trypsin; 56 µM at human plasmin [3]; 17 µM at human plasma kallikrein. Further, the IC50 on bovine thrombin [4] was > 500 µM.
